Molecules are shown by their SMILES.

This assay is described as follows: Slope was measured from percentage of specific binding with time.
As for `CCCC(=O)OC.CO/C(O)=C1/C(C)=NCCC1c1ccccc1F` (centres undefined), the Slope is 1.6. Molecule `CCCC(=O)OC.CO/C(O)=C1/C(C)=NCCC1c1ccccc1Br` (centres undefined) yielded a Slope of 1.3.

`CCCC(=O)OC.CO/C(O)=C1/C(C)=NCCC1c1ccccc1I` (centres undefined): the Slope came out at 1.2.

`CCCC(=O)OC.CO/C(O)=C1/C(C)=NCCC1c1ccccc1Cl` (centres undefined) had a Slope of 1.4.

For the origin of these results see ChEMBL document CHEMBL1125184, “Active conformation of 1,4-dihydropyridine calcium entry blockers. Effect of size of 2-aryl substituent on rotameric equilibria and receptor binding” (J Med Chem, 1991).
